Patent US20240148749A1 (priority 2021, published 2024)

Experiments:
microglial cells = experiment: Microglial ROS/RNS, antioxidant defense and bioenergetic/mitochondrial parameters at 21 days; assay type: in vivo, mouse
Experimental: (§1) Data shown are mean values (±SD). Gray bars represent MnTBAP-treated mice from either CLP or control groups, and black bars represent placebo-treated mice from either CLP or Control groups. Two-way analyses of variance (ANOVAs) (CLP vs control×MnTBAP vs Placebo) were performed. When a significant interaction was observed, planned comparisons were performed for the CLP/Placebo group against the three other groups. The significance of the planned comparisons is indicated with asterisks (*p<0.05, **p<0.01, ***p<0.001, ****p<0.0001) .
as §1, with “Control×MnTBAP” for “control×MnTBAP”, “****p<0.0001).” for “****p<0.0001) .”
(§2) MnTBAP is commercially available: it is for example manufactured by Sigma-Aldrich, Calbiochem, etc. For use it is dissolved following the guidance provided by the manufacturer.
Brains were collected for cell dissociation and Cdllb-positive cell separation using a magnetic coupled antibody (MACS® Technology), according to the manufacturer's protocol (Miltenyi Biotec, Bergisch Gladbach, Germany) and as previously described (Schang et al., 2014). In brief, mice were intracardially perfused with NaCl 0,9%. The brains are then dissociated using the Neural Tissue Dissociation Kit containing trypsin and the gentleMACS Octo Dissociator with Heaters. From the resulting brain homogenate, cd11 b-positive cells were enriched using the anti-cd11 b MicroBeads. After elution the isolated cells were centrifuged for 5 min at 200G and conserved at −80° C.
(§3) Total RNA was isolated from cells using the RNAeasy Micro kit (Qiagen), and reverse-transcribed using Superscript® III Reverse transcriptase (Invitrogen). Real-time quantitative PCR was performed in duplicate for each sample using Power Sybr Green PCR Master Mix (Applied Biosystems) and the rate of dye incorporation was monitored using the StepOne™ Plus RealTime PCR system (Applied Biosystems). Data were analyzed by StepOne Plus RT PCR software v2.1 and Microsoft excel. Amplification specificity was assessed with a melting curve analysis. TBP transcript levels were used for normalisation of each target (=ΔCT). Real-time PCR CT values were analyzed using the 2^−(ΔCt) method to calculate the fold expression (Schmittgen et al., 2008). The data are presented as relative mRNA units with respect to control group (expressed as fold over control value). Primer sequences available upon request.
(§4) Microglial cells and brain samples were resuspended in lysis buffer (50 mM TrisHCI pH 7.5, 150 mM NaCl, 1% Triton X-100, 0.1% SDS, 1 mM EDTA, and protease inhibitor mixture), mechanically homogenized with a piston, briefly vortexed and incubated for 30 min at 4° C. Lysed samples were briefly centrifuged to remove debris, and the whole supernatant extract was collected. Aliquots of the supernatant were immediately used for the assessment of ROS level, RNS level, dual ROS/RNS level, SOD activity, and Acetyl-Coa level. The protein content was determined with the Bradford reagent (Sigma-Aldrich).
(§5) Both ROS and RNS were measured by incubating CellROX (Life Technologies) with 30 μg of freshly extracted total proteins for 45 min at 37° C. in the dark in 96-wells plate in triplicate. Fluorescence intensity was measured using near-infra-red fluorescence setting with the plate reader Odyssey Infrared Imaging system scanner and Odyssey application software v3.0 (LI-COR Biosciences, Lincoln, NE).
SOD activity was measured with Superoxide Dismutase Activity Colorimetric Assay kit (Abcam, ab65354), following the manufacturer's instructions. […]

brain = experiment: Brain ROS/RNS, antioxidant defense and bioenergetic/mitochondrial parameters at 21 days; assay type: in vivo, mouse
Source text: (b) Levels of the central bioenergetic metabolite Acetyl-CoA expressed in nmol/g. Expression of genes coding for PGC-lalpha quantified by RT-qPCR from RNA isolated from brains extracted from control and CLP mice with or without MnTBAP.
as §1, with “Control×MnTBAP” for “control×MnTBAP”, “CLPI/Placebo” for “CLP/Placebo”
as §2, §3, §4, §5
SOD activity was measured with Superoxide Dismutase Activity Colorimetric Assay kit (Abcam, ab65354), following the manufacturer's instructions. This measurement assesses SOD-dependent inhibition of superoxide anion reduction. Tests were performed with 30 μg of freshly extracted total proteins, quantified by Bradford assay, or with 10 μl of serum, in triplicate.
Total DNA was prepared using extraction buffer (0.2 mg ml^−1 proteinase K, 0.2% SDS and 5 mM EDTA in PBS) and incubated at 50° C. for 3 h. DNA was precipitated with 3 M sodium acetate (pH 5.2) and isopropanol for 20 min on ice before centrifugation at 8,000 g at 4° C. The DNA pellet was washed and briefly air-dried. qPCR amplification was performed on total DNA using the StepOne Plus RealTime PCR system (Applied Biosystems) and Power Sybr Green PCR Master mix (ABI) following the manufacturer's instruction. A fragment of mitochondrial COI gene, the established marker for mtDNA content in mouse cells, was amplified using the nuclear encoded Ndufv1 gene as endogenous reference. […]

[1] = CLP mice + MnTBAP compared to CLP-placebo mice, 21 days
[2] = CLP mice + MnTBAP vs CLP-placebo, 21 days after sepsis, remained different from Control-Placebo
[3] = MnTBAP in control mice vs Control-placebo mice
[4] = MnTBAP in control mice vs Control-placebo mice, p<0.0001
[5] = MnTBAP in control mice vs Control-placebo mice, p=0.0003
[6] = CLP mice + MnTBAP, 21 days after sepsis
[7] = CLP mice + MnTBAP, 21 days after sepsis, remained different from Control-Placebo

O=C(O)c1ccc(/C2=C3\C=CC(=N3)/C(c3ccc(C(=O)O)cc3)=c3/cc/c4[n]3[Mn]([Cl])[n]3c2ccc3/C(c2ccc(C(=O)O)cc2)=C2/C=CC(=N2)\C=4c2ccc(C(=O)O)cc2)cc1 [MnTBAP, Manganese (III) tetrakis (4-benzoic acid)porphyrin chloride]
microglial OXPHOS/glycolysis ATP balance (microglial cells; [1]): strong microglial metabolic shift from mitochondrial OXPHOS to glycolysis
microglial PGC1 alpha expression (microglial cells; [1]): increase
microglial mtDNA content (microglial cells; [1]): strong mtDNA content increase
microglial mtRNA 16S expression (microglial cells; [1]): strong increase
microglial mtRNA CytB expression (microglial cells; [1]): strong increase
microglial NRF2 transcript expression (microglial cells; [2]): significantly increasing
microglial ROS/RNS levels (microglial cells; [2]): significantly increasing
microglial SOD1 transcript expression (microglial cells; [2]): significantly increasing
microglial SOD2 transcript expression (microglial cells; [2]): significantly increasing
microglial SOD activity (microglial cells; [2]): significantly increasing
microglial catalase transcript expression (microglial cells; [2]): significantly increasing
sepsis-induced microglial reprogramming and alterations (microglial cells; CLP mice, 21 days after sepsis): successfully reversed
microglial bioenergetic metabolite acetyl-CoA level (microglial cells; CLP mice, systemic MnTBAP treatment, FIG. 8): reduction
microglial ATP generation (microglial cells; [3]): did not affect
microglial SOD activity (microglial cells; [3]): did not affect
microglial glycolysis contribution (microglial cells; [3]): did not affect
microglial mtDNA content (microglial cells; MnTBAP in control mice vs Control-placebo mice, 0.01): reduced
microglial NRF2 expression (microglial cells; [4]): slightly reduced
microglial SOD1 expression (microglial cells; [4]): slightly reduced
microglial mtRNA 16S level (microglial cells; [4]): reduced
microglial mtRNA CytB level (microglial cells; [4]): reduced
microglial PGC1 alpha expression (microglial cells; [5]): reduced
microglial SOD2 expression (microglial cells; [5]): slightly reduced
microglial catalase expression (microglial cells; MnTBAP in control mice vs Control-placebo mice, p=0.0036): slightly reduced
microglial ROS/RNS levels (microglial cells; MnTBAP in control mice vs Control-placebo mice, p=0.005): slightly reduced
brain acetyl-coA levels (brain; [6]): strongly decreased
brain mtRNA 16S levels (brain; [6]): strongly decreased
brain ATP production (brain; [7]): significantly increasing
brain ROS/RNS levels (brain; [7]): significantly increasing
brain SOD1 expression (brain; [7]): significantly increasing
brain SOD activity levels (brain; [7]): significantly increasing
sepsis-induced brain alterations (brain; CLP mice, 21 days after sepsis): counteracted
brain PGC1 alpha expression (brain; [3]): did not affect
brain acetyl-coA levels (brain; [3]): did not affect
brain catalase expression (brain; [3]): did not affect
brain ATP production (brain; [4]): increase
brain NRF2 expression (brain; [4]): increase
brain SOD1 expression (brain; [4]): increase
brain SOD2 expression (brain; [4]): increase
brain SOD activity (brain; [4]): increase
brain mtDNA content (brain; [4]): increase
brain mtRNA 16S level (brain; MnTBAP in control mice vs Control-placebo mice, p=0.0005): increase
brain ROS/RNS levels (brain; MnTBAP in control mice vs Control-placebo mice, p=0.001): increase
brain mtRNA CytB level (brain; MnTBAP in control mice vs Control-placebo mice, p=0.04): increase
